According to US20260097047A1, “Small molecule inhibitors of the ribosome biogenesis factor NVL2” (Board of Regents, The University of Texas System, priority 2023, published 2026):
Where two headings read alike, the source gives them in different places.

Tested on: HCT116 cells
Experiment: Cell viability assay (CellTiter-Glo, 72 hours) in HCT116 human colorectal cancer cells
Format: cell-based
Conditions: HCT116, 72 hours, read-out: Activity
Method in brief: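 Ten-point IC50 came from an asymmetric five-parameter fit of luminescence corrected to vehicle wells. ATP content was measured by CellTiter-Glo 72 h after dosing at 37 °C. Cells were seeded at 2,000/well the day before, with 0.5% DMSO in all wells.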

Row | SMILES | IC50 (Table 4) [nM] | IC50 (Table 6) [nM] | other results
1 | CC#CCN1C(=O)c2ccccc2Sc2cc(NC(=O)NC3CC(COC)C3)cnc21 (stereo not shown) [Table 3: —CH2CCMe; 3-MeOCH2-cBu; CH/N] |  |  | IC50 (Table 3): < 500 nM
2 | CC#CCN1C(=O)c2ccccc2Sc2cc(NC(=O)Nc3cccc(OC)c3)ccc21 [Table 3: —CH2CCMe; 3-MeOPh; CH/CH] |  |  | IC50 (Table 3): < 500 nM
3 | CC#CCN1C(=O)c2ccccc2Sc2cc(NC(=O)Nc3ccc(OC(F)F)cc3)ccc21 [Table 3: —CH2CCMe; 4-F2HCOPh; CH/CH, 1-(10-(But-2-yn-1-yl)-11-oxo-10,11-dihydrodibenzo[b,f][1,4]thiazepin-7-yl)-3-(4-(difluoromethoxy)phenyl) urea] |  |  | IC50 (Homo sapiens, HCT-116, Table 3): < 500 nM
4 | CC#CCN1C(=O)c2ccccc2Sc2cc(NC(=O)Nc3ccc(OC)cc3)ccc21 [Table 3: —CH2CCMe; 4-MeOPh; CH/CH] |  |  | IC50 (Table 3): < 500 nM
5 | CC#CCN1C(=O)c2ccccc2Sc2cc(NC(=O)Nc3ccc(OC)cc3)cnc21 [Table 3: —CH2CCMe; 4-MeOPh; CH/N] |  |  | IC50 (Table 3): < 500 nM
6 | CC#CCN1C(=O)c2ccccc2Sc2cc(NC(=O)N[C@H]3C[C@@H](OC)C3)cnc21 [Table 3: —CH2CCMe; cis-3-MeOcBu; CH/N] |  |  | IC50 (Table 3): < 500 nM
7 | CC#CCN1C(=O)c2ccccc2Sc2cc(NC(=O)N[C@H]3C[C@@H](O)C3)ccc21 [Table 3: —CH2CCMe; cis-3-OH-cBu; CH/CH] |  |  | IC50 (Table 3): < 500 nM
8 | CC#CCN1C(=O)c2ccccc2Sc2cc(NC(=O)N[C@H]3C[C@@H](O)C3)cnc21 [Table 3: —CH2CCMe; cis-3-OH-cBu; CH/N] |  |  | IC50 (Table 3): < 500 nM
9 | CC#CCN1C(=O)c2ccccc2Sc2cc(NC(=O)NC3COC3)ccc21 [Table 3: —CH2CCMe; oxetan-3-yl; CH/CH] |  |  | IC50 (Table 3): < 500 nM
10 | CC#CCN1C(=O)c2ccccc2Sc2cc(NC(=O)N[C@H]3C[C@H](OC)C3)ccc21 [Table 3: —CH2CCMe; trans-3-MeOcBu; CH/CH] |  |  | IC50 (Table 3): < 500 nM
11 | CC#CCN1C(=O)c2ccccc2Sc2cc(NC(=O)N[C@H]3C[C@H](O)C3)ccc21 [Table 3: —CH2CCMe; trans-3-OH-cBu; CH/CH] |  |  | IC50 (Table 3): < 500 nM
12 | CC#CCN1C(=O)c2ccccc2Sc2cc(NC(=O)N[C@H]3C[C@H](O)C3)cnc21 [Table 3: —CH2CCMe; trans-3-OH-cBu; CH/N] |  |  | IC50 (Table 3): < 500 nM
13 | CC#CCN1C(=O)c2ccccc2Sc2cc(NC(=S)Nc3cccc(OCF)c3)ccc21 [Table 4: —CH2CCMe; 3-FH2COPh; CH] | < 500 |  | 
14 | CC#CCN1C(=O)c2ccccc2Sc2cc(NC(=S)Nc3cccc(OCF)c3)cnc21 [Table 4: —CH2CCMe; 3-FH2COPh; N] | < 500 |  | 
15 | CC#CCN1C(=O)c2ccccc2Sc2cc(NC(=S)NC3CC(COC)C3)ccc21 (stereo not shown) [Table 4: —CH2CCMe; 3-MeOCH2-cBu; CH] | < 500 |  | 
16 | CC#CCN1C(=O)c2ccccc2Sc2cc(NC(=S)NC3CC(COC)C3)cnc21 (stereo not shown) [Table 4: —CH2CCMe; 3-MeOCH2-cBu; N] | < 500 |  | 
17 | CC#CCN1C(=O)c2ccccc2Sc2cc(NC(=S)Nc3cccc(OC)c3)ccc21 [Table 4: —CH2CCMe; 3-MeOPh; CH] | < 500 |  | 
18 | CC#CCN1C(=O)c2ccccc2Sc2cc(NC(=S)Nc3cccc(OC)c3)cnc21 [Table 4: —CH2CCMe; 3-MeOPh; N] | < 500 |  | 
19 | CC#CCN1C(=O)c2ccccc2Sc2cc(NC(=S)Nc3ccc(OC(F)F)cc3)ccc21 [Table 4: —CH2CCMe; 4-F2HCOPh; CH, 1-(10-(But-2-yn-1-yl)-11-oxo-10,11-dihydrodibenzo[b,f][1,4]thiazepin-7-yl)-3-(4-(difluoromethoxy)phenyl)thiourea] |  |  | IC50 (Homo sapiens, HCT-116, Table 4): < 500 nM
20 | CC#CCN1C(=O)c2ccccc2Sc2cc(NC(=S)Nc3ccc(OC(F)F)cc3)cnc21 [Table 4: —CH2CCMe; 4-F2HCOPh; N] | < 500 |  | 

Row | SMILES | IC50 (Table 4) [nM] | IC50 (Table 6) [nM] | other results
21 | CC#CCN1C(=O)c2ccccc2Sc2cc(NC(=S)Nc3ccc(OCF)cc3)cnc21 [Table 4: —CH2CCMe; 4-FH2COPh; N] | < 500 |  | 
22 | CC#CCN1C(=O)c2ccccc2Sc2cc(NC(=S)Nc3ccc(OC)cc3)ccc21 [Table 4: —CH2CCMe; 4-MeOPh; CH] | < 500 |  | 
23 | CC#CCN1C(=O)c2ccccc2Sc2cc(NC(=S)Nc3ccc(OC)cc3)cnc21 [Table 4: —CH2CCMe; 4-MeOPh; N] | < 500 |  | 
24 | CC#CCN1C(=O)c2ccccc2Sc2cc(NC(=S)Nc3ccc(OC)nc3)cnc21 [Table 4: —CH2CCMe; 6-MeO-pyridin-3-yl; N] | < 500 |  | 
25 | CC#CCN1C(=O)c2ccccc2Sc2cc(NC(=S)N[C@H]3C[C@@H](OC)C3)ccc21 [Table 4: —CH2CCMe; cis-3-MeOcBu; CH] | < 500 |  | 
26 | CC#CCN1C(=O)c2ccccc2Sc2cc(NC(=S)N[C@H]3C[C@@H](OC)C3)cnc21 [Table 4: —CH2CCMe; cis-3-MeOcBu; N] | < 500 |  | 
27 | CC#CCN1C(=O)c2ccccc2Sc2cc(NC(=S)N[C@H]3C[C@@H](O)C3)ccc21 [Table 4: —CH2CCMe; cis-3-OH-cBu; CH] | < 500 |  | 
28 | CC#CCN1C(=O)c2ccccc2Sc2cc(NC(=S)N[C@H]3C[C@@H](O)C3)cnc21 [Table 4: —CH2CCMe; cis-3-OH-cBu; N] | < 500 |  | 
29 | CC#CCN1C(=O)c2ccccc2Sc2cc(NC(=S)NC3COC3)ccc21 [Table 4: —CH2CCMe; oxetan-3-yl; CH] | < 500 |  | 
30 | CC#CCN1C(=O)c2ccccc2Sc2cc(NC(=S)NC3COC3)cnc21 [Table 4: —CH2CCMe; oxetan-3-yl; N] | < 500 |  | 
31 | CC#CCN1C(=O)c2ccccc2Sc2cc(NC(=S)N[C@H]3C[C@H](OC)C3)ccc21 [Table 4: —CH2CCMe; trans-3-MeOcBu; CH] | < 500 |  | 
32 | CC#CCN1C(=O)c2ccccc2Sc2cc(NC(=S)N[C@H]3C[C@H](OC)C3)cnc21 [Table 4: —CH2CCMe; trans-3-MeOcBu; N] | < 500 |  | 
33 | CC#CCN1C(=O)c2ccccc2Sc2cc(NC(=S)N[C@H]3C[C@H](O)C3)ccc21 [Table 4: —CH2CCMe; trans-3-OH-cBu; CH] | < 500 |  | 
34 | CC#CCN1C(=O)c2ccccc2Sc2cc(NC(=S)N[C@H]3C[C@H](O)C3)cnc21 [Table 4: —CH2CCMe; trans-3-OH-cBu; N] | < 500 |  | 
35 | O=C1c2ccccc2Sc2cc(NC3CC(O)C3)ccc2N1CC#CCl (stereo not shown) [Table 6: —CH2CCCl; 3-HOcBu; CH/CH; S] |  | < 500 | 
36 | O=C1c2ccccc2Sc2cc(NC3CC(O)C3)cnc2N1CC#CCl (stereo not shown) [Table 6: —CH2CCCl; 3-HOcBu; CH/N; S] |  | < 500 | 
37 | COCC1CC(Nc2cnc3c(c2)Sc2ccccc2C(=O)N3CC#CCl)C1 (stereo not shown) [Table 6: —CH2CCCl; 3-MeOCH2-cBu; CH/N; S] |  | < 500 | 
38 | COC1CC(Nc2ccc3c(c2)Sc2ccccc2C(=O)N3CC#CCl)C1 (stereo not shown) [Table 6: —CH2CCCl; 3-MeOcBu; CH/CH; S] |  | < 500 | 
39 | COC1CC(Nc2cnc3c(c2)Sc2ccccc2C(=O)N3CC#CCl)C1 (stereo not shown) [Table 6: —CH2CCCl; 3-MeOcBu; CH/N; S] |  | < 500 | 
40 | O=C1c2ccccc2Sc2cc(NC3COC3)ccc2N1CC#CCl [Table 6: —CH2CCCl; oxetan-3-yl; CH/CH; S] |  | < 500 | 

Row | SMILES | IC50 (Table 4) [nM] | IC50 (Table 6) [nM] | other results
41 | O=C1c2ccccc2Sc2cc(NC3COC3)cnc2N1CC#CCl [Table 6: —CH2CCCl; oxetan-3-yl; CH/N; S] |  | < 500 | 
42 | C#CCN1C(=O)c2ccccc2Sc2cc(NC3CC(O)C3)ccc21 (stereo not shown) [Table 6: —CH2CCH; 3-HOcBu; CH/CH; S] |  | < 500 | 
43 | C#CCN1C(=O)c2ccccc2Sc2cc(NC3CC(O)C3)cnc21 (stereo not shown) [Table 6: —CH2CCH; 3-HOcBu; CH/N; S] |  | < 500 | 
44 | C#CCN1C(=O)c2ccccc2Sc2cc(NC3CC(COC)C3)ccc21 (stereo not shown) [Table 6: —CH2CCH; 3-MeOCH2-cBu; CH/CH; S] |  | < 500 | 
45 | C#CCN1C(=O)c2ccccc2Sc2cc(NC3CC(COC)C3)cnc21 (stereo not shown) [Table 6: —CH2CCH; 3-MeOCH2-cBu; CH/N; S] |  | < 500 | 
46 | C#CCN1C(=O)c2ccccc2Sc2cc(NC3CC(OC)C3)ccc21 (stereo not shown) [Table 6: —CH2CCH; 3-MeOcBu; CH/CH; S] |  | < 500 | 
47 | C#CCN1C(=O)c2ccccc2Sc2cc(NC3CC(OC)C3)cnc21 (stereo not shown) [Table 6: —CH2CCH; 3-MeOcBu; CH/N; S] |  | < 500 | 
48 | C#CCN1C(=O)c2ccccc2Sc2cc(NC3COC3)cnc21 [Table 6: —CH2CCH; oxetan-3-yl; CH/N; S] |  | < 500 | 
49 | CC#CCN1C(=O)c2ccccc2Sc2cc(NC3CC(CO)C3)ccc21 (stereo not shown) [Table 6: —CH2CCMe; 3-HOCH2-cBu; CH/CH; S, 10-(But-2-yn-1-yl)-7-((3-(hydroxymethyl)cyclobutyl)amino)dibenzo[b,f][1,4]thiazepin-11 (10H)-one] |  |  | IC50 (Homo sapiens, HCT-116, Table 6): < 500 nM
50 | CC#CCN1C(=O)c2ccccc2Sc2cc(NC3CC(CO)C3)cnc21 (stereo not shown) [Table 6: —CH2CCMe; 3-HOCH2-cBu; CH/N; S] |  | < 500 | 
51 | CC#CCN1C(=O)c2ccccc2Cc2cc(NC3CC(O)C3)ccc21 (stereo not shown) [Table 6: —CH2CCMe; 3-HOcBu; CH/CH; CH2] |  | < 500 | 
52 | CC#CCN1C(=O)c2ccccc2Sc2cc(NC3CC(O)C3)cnc21 (stereo not shown) [Table 6: —CH2CCMe; 3-HOcBu; CH/N; S] |  | < 500 | 
53 | CC#CCN1C(=O)c2ccccc2Sc2cc(NC3CC(COC)C3)cnc21 (stereo not shown) [Table 6: —CH2CCMe; 3-MeOCH2-cBu; CH/N; S, 11-(But-2-yn-1-yl)-3-((3-(methoxymethyl)cyclobutyl)amino)benzo[f]pyrido[3,2-b][1,4]thiazepin-10(11H)-one] |  |  | IC50 (Homo sapiens, HCT-116, Table 6): < 500 nM
54 | CC#CCN1C(=O)c2ccccc2Sc2cc(NC3CC(OC)C3)ccc21 (stereo not shown) [Table 6: —CH2CCMe; 3-MeOcBu; CH/CH; S, 10-(But-2-yn-1-yl)-7-((3-methoxycyclobutyl)amino)dibenzo[b,f][1,4]thiazepin-11 (10H)-one] |  |  | IC50 (Homo sapiens, HCT-116, Table 6): < 500 nM
55 | CC#CCN1C(=O)c2ccccc2Sc2cc(NC3CC(OC)C3)cnc21 (stereo not shown) [Table 6: —CH2CCMe; 3-MeOcBu; CH/N; S] |  | < 500 | 
56 | CC#CCN1C(=O)c2ccccc2Cc2cc(NCCCO)ccc21 [Table 6: —CH2CCMe; (CH2)3 OH; CH/CH; CH2] |  | < 500 | 
57 | CC#CCN1C(=O)c2ccccc2Sc2cc(NCCCO)ccc21 [Table 6: —CH2CCMe; (CH2)3OH; CH/CH; S] |  | < 500 | 
58 | CC#CCN1C(=O)c2ccccc2Cc2cc(NCCCOC)ccc21 [Table 6: —CH2CCMe; (CH2)3OMe; CH/CH; CH2] |  | < 500 | 
